# Paper PMC4138267 (Nature chemical biology, 2014)
# Read-outs that look alike come from different tables or passages of the source.
# Tests used:
# Assay type in all cases: cell-based
# [1] = target: human D2 dopamine receptor (D2LR) (Homo sapiens, UniProt P14416); assay: ERK1/2 phosphorylation assay, Flp-In CHO cells expressing D2LR; settings: for Logαβ: cooperativity with dopamine
# [2] = target: D2R dimer: WT D2R (protomer A) + D2R-Gqi5 fusion (protomer B) (UniProt P14416+P21279); assay: Aequorin functional complementation assay, WT:WT pair; settings: WT:WT complement pair; 100 µM dopamine
# [3] = target: D2R dimer: WT D2R (protomer A) + D2-Asp114^3.32Ala-Gqi5 (protomer B) (Homo sapiens, UniProt P14416)
# Val91^2.61Ala D2LR = Val91^2.61Ala D2LR (Homo sapiens, UniProt P14416, V91A); settings: pERK1/2, interaction with dopamine
# [4] = target: N-terminal c-myc-tagged WT D2LR (Homo sapiens, UniProt P14416); assay: ERK1/2 phosphorylation assay, Flp-In CHO cells, c-myc-tagged WT D2LR; settings: pERK1/2, interaction with dopamine
# [5] = KB, pERK1/2, probe ligand dopamine
# Sequence of human D2 dopamine receptor (D2LR) (P14416 whole entry, the tested form may be a part): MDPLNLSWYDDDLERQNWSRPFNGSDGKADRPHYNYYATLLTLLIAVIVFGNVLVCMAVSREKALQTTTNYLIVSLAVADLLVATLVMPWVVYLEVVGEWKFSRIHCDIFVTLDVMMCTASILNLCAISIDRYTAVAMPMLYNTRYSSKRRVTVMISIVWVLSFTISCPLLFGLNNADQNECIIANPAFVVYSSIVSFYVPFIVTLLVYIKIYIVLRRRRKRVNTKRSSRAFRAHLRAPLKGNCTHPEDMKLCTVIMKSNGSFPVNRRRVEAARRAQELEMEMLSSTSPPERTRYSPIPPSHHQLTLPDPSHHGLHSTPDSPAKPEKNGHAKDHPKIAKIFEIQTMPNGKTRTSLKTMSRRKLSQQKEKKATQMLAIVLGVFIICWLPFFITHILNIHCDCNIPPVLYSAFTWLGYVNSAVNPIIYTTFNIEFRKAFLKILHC
# Sequence of D2R dimer: WT D2R (protomer A) + D2-Asp114^3.32Ala-Gqi5 (protomer B) (P14416 1-414 isoform P14416-2): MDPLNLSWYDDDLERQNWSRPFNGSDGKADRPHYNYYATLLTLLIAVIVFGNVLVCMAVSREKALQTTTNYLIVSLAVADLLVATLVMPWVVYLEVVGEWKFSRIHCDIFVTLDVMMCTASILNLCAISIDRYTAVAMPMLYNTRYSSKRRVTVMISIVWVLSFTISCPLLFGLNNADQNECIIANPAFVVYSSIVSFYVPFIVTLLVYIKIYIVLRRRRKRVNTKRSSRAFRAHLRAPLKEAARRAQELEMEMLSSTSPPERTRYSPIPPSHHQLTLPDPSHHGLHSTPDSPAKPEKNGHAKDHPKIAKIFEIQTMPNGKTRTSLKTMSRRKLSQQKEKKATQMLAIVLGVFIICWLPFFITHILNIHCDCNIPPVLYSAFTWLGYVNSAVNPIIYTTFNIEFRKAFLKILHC
# Sequence of N-terminal c-myc-tagged WT D2LR (P14416 whole entry): as the sequence (P14416 whole entry, the tested form may be a part) above
# Sequence of Val91^2.61Ala D2LR (P14416 whole entry V91A): as the sequence (P14416 whole entry, the tested form may be a part) above, with V91A counted along it
compound,measurement,setting,value
"CCCN1CCc2ccc(C#N)cc2C1 [MIPS1071, 2-propyl-1,2,3,4-tetrahydroisoquinoline-7-carbonitrile]",Kb,"[1]; KB, pERK1/2, probe ligand S-3PPP",363 nM
same,Kb,"[1]; KB, pERK1/2, probe ligand aripiprazole",575 nM
same,Kb,[1]; [5],380 nM
same,Logαβ,[1]; pERK1/2,1.00 ± 0.08
same,Schild Slope,"[1]; pERK1/2, probe ligand S-3PPP",1.11 ± 0.18
same,Schild Slope,"[1]; pERK1/2, probe ligand aripiprazole",0.94 ± 0.18
"N#Cc1ccc2c(c1)CNCC2 [THIQ7C, 1,2,3,4-tetrahydroisoquinoline-7-carbonitrile]",Kb,[1]; [5],2510 nM
same,Logαβ,[1]; pERK1/2,1.03 ± 0.18
same,fold lower affinity than SB269652,"[1]; pERK1/2, probe ligand dopamine",17 fold
CCN1CCCC1CNC(=O)c1cc(S(N)(=O)=O)ccc1OC (stereo not drawn) [sulpiride],extent of antagonism of dopamine,[2],completely inhibited
same,extent of antagonism of dopamine,[3],completely antagonized
"CC(=O)N[C@H]1CC[C@H](CCN2CCc3ccc(C#N)cc3C2)CC1 [MIPS1059, N-((trans)-4-(2-(7-cyano-3,4-dihydroisoquinolin-2(1H)yl)ethyl)cyclohexyl)acetamide]",Kb,[1],23.4 nM
same,Schild Slope,"[1]; pERK1/2, probe ligand dopamine",1.06 ± 0.04
N#Cc1ccc2c(c1)CCN(CC[C@H]1CC[C@@H](NC(=O)c3cc4ccccc4[nH]3)CC1)C2 [MIPS1217],Kb,Val91^2.61Ala D2LR,891 nM
same,Kb,[4],195 nM
